Source: the supplement of paper PMC10307832

What follows are cell lines tested with C1=CC2=NC=CN=C2C=C1/C=C/3\C(=O)NC(=O)S3 + COc1cc2c(Oc3ccc(NC(=O)C4(C(=O)Nc5ccc(F)cc5)CC4)cc3F)ccnc2cc1OCCCN1CCOCC1 [Foretinib] (partner 0.25 µM) (assay: relative viability (nuclei count vs DMSO), 5 days (fraction); higher = more cells survive). Settings: first compound 0.02 µM.
Summary of the method: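 Medians of duplicate plates are given as relative viability. That measure is the nuclei count in treated wells divided by the count in vehicle wells. Counts were taken on 4× images of lung cancer cell lines in 1536-well plates, 5 days after pin-tool dosing the day after seeding with one drug alone or a fixed anchor-drug dose plus five library-drug doses (not always all listed) in √10 steps.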

Cell Line | relative viability
NCI-H2170 | 0.962
A549 | 0.965
SW 900 | 0.703
NCI-H2009 | 1.21
NCI-H661 | 1
SK-LU-1 | 0.861
NCI-H1299 | 1.01
NCI-H2228 | 0.834
NCI-H2023 | 0.714
NCI-H1563 | 0.901

Same assay, conditions: first compound 0.06325 µM

Cell Line | relative viability
NCI-H1623 | 0.855
NCI-H727 | 0.852
NCI-H1650 | 0.956
EBC-1 | 0.105
NCI-H1703 | 0.442
NCI-H1993 | 0.817
SW 1573 | 1.22
NCI-H838 | 1.08
LCLC-103H | 0.711
NCI-H520 | 0.719
NCI-H2126 | 0.987
EMC-BAC-2 | 1.07
NCI-H2085 | 1.09
Calu-6 | 0.866
NCI-H1666 | 0.879
NCI-H596 | 0.863
LK-2 | 1.16
NCI-H2087 | 0.974

Cell Line | relative viability
NCI-H2342 | 0.93
SK-MES-1 | 1.05
H3255 | 0.968
COR-L23 | 0.961
COR-L 105 | 1.39
IA-LM | 1.28
LOU-NH91 | 0.965
ChaGo-K-1 | 0.673
NCI-H2170 | 1.12
A549 | 1.05
SW 900 | 0.823
NCI-H2009 | 1.22
NCI-H661 | 1.05
SK-LU-1 | 0.968
NCI-H1299 | 1.11
NCI-H2228 | 1.05
NCI-H2023 | 0.832
NCI-H1563 | 0.979

Same assay, conditions: first compound 0.2 µM

Cell Line | relative viability
NCI-H1623 | 0.953
NCI-H727 | 1.04
NCI-H1650 | 1.07
EBC-1 | 0.0907
NCI-H1703 | 0.34
NCI-H1993 | 0.72
SW 1573 | 0.911
NCI-H838 | 1
LCLC-103H | 0.813
NCI-H520 | 0.846
NCI-H2126 | 1.2
EMC-BAC-2 | 1.05
NCI-H2085 | 0.902
Calu-6 | 0.843
HCC-366 | 0.863
NCI-H1666 | 0.986
NCI-H596 | 1.05
LK-2 | 1.26
NCI-H2087 | 0.992

Cell Line | relative viability
NCI-H2342 | 1.02
SK-MES-1 | 0.976
H3255 | 0.881
COR-L23 | 0.96
COR-L 105 | 0.9
IA-LM | 1.15
LOU-NH91 | 0.964
ChaGo-K-1 | 0.922
NCI-H2170 | 1.05
A549 | 0.889
SW 900 | 0.77
NCI-H2009 | 1.3
NCI-H661 | 1.07
SK-LU-1 | 0.751
NCI-H1299 | 1.11
NCI-H2228 | 0.961
NCI-H2023 | 0.765
NCI-H1563 | 0.914

Same assay, conditions: first compound 0.6325 µM

Cell Line | relative viability
NCI-H1623 | 0.82
NCI-H727 | 0.853
NCI-H1650 | 1.13
EBC-1 | 0.0919
NCI-H1703 | 0.295
NCI-H1993 | 0.748
SW 1573 | 0.804
NCI-H838 | 1.02
LCLC-103H | 0.653
NCI-H520 | 0.674
NCI-H2126 | 1.11
EMC-BAC-2 | 0.903
NCI-H2085 | 1.03
Calu-6 | 0.864
HCC-366 | 0.901
NCI-H1666 | 0.909
NCI-H596 | 0.742
LK-2 | 1.03
NCI-H2087 | 0.975

Cell Line | relative viability
NCI-H2342 | 0.953
SK-MES-1 | 0.804
H3255 | 0.899
COR-L23 | 0.934
COR-L 105 | 0.906
IA-LM | 1.2
LOU-NH91 | 0.923
ChaGo-K-1 | 0.844
NCI-H2170 | 1.01
A549 | 0.835
SW 900 | 1.06
NCI-H2009 | 1.28
NCI-H661 | 0.957
SK-LU-1 | 0.785
NCI-H1299 | 1.09
NCI-H2228 | 0.841
NCI-H2023 | 0.781
NCI-H1563 | 0.895

Same assay, conditions: first compound 2 µM

Cell Line | relative viability
NCI-H1623 | 0.799
NCI-H727 | 0.588
NCI-H1650 | 1.08
EBC-1 | 0.11
NCI-H1703 | 0.324
NCI-H1993 | 0.578
SW 1573 | 0.487
NCI-H838 | 0.874
LCLC-103H | 0.648
NCI-H520 | 0.648
NCI-H2126 | 0.745
EMC-BAC-2 | 0.923
NCI-H2085 | 0.882
Calu-6 | 0.928
HCC-366 | 0.985
NCI-H1666 | 0.932
NCI-H596 | 0.899
LK-2 | 0.789
NCI-H2087 | 0.931

Cell Line | relative viability
NCI-H2342 | 0.891
SK-MES-1 | 0.669
H3255 | 0.965
COR-L23 | 0.979
COR-L 105 | 1.06
IA-LM | 1.25
LOU-NH91 | 0.855
ChaGo-K-1 | 0.95
NCI-H2170 | 1.02
A549 | 0.984
SW 900 | 0.797
NCI-H2009 | 1.12
NCI-H661 | 1.08
SK-LU-1 | 0.791
NCI-H1299 | 1.15
NCI-H2228 | 0.749
NCI-H2023 | 0.51
NCI-H1563 | 0.943
